This is an account of results in ChEMBL document CHEMBL1201862, “PubChem BioAssay data set” (2004).

Among the test systems are HL-60; 786-0; PC-3; T47D; MCF7; DU-145; NCI/ADR-RES; HT-29; TK-10; Malme-3M; HCT-116; EKVX; UO-31; SN12C; SNB-19; SK-MEL-2; IGROV-1; OVCAR-8.
What all share (assay): NCI anticancer screen, dose series, 48 h

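Cultured in 96-well plates, cells were exposed to test compound for 48 hours across five concentrations. GI50: concentration for 50% inhibition of growth.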 The source made the active and inactive calls. Cut-off read from the data, not from the text of the source: active = GI50 up to about 1.1 µM and inactive = higher. Some results are limits rather than exact numbers.

As to `C=CC(Br)(CBr)CCC(Br)C(C)C` (configuration not stated), the GI50 in the assay on HL-60 was 0.769 µM (active); in the assay with 786-0, 1.58 µM (inactive); in the assay on PC-3 it was 7 µM (inactive); in the assay on T47D, 0.333 µM (active); in the assay on MCF7, 1.82 µM (inactive); in the assay with DU-145, 8.55 µM (inactive). Moreover, the GI50 in the assay on NCI/ADR-RES was 7.85 µM (inactive); in the assay with HT-29 it was 2.79 µM (inactive); in the assay with TK-10, 3.13 µM (inactive); in the assay on Malme-3M, 13.5 µM (inactive); in the assay with HCT-116, 5.57 µM (inactive); with EKVX, 18.3 µM (inactive). The GI50 in the assay on UO-31 was 13 µM (inactive); in the assay on SN12C, 10.7 µM (inactive); with SNB-19, 9.84 µM (inactive); in the assay with SK-MEL-2, 2.96 µM (inactive); in the assay on IGROV-1, 3.46 µM (inactive); with OVCAR-8 it was 2.44 µM (inactive).

Regarding `Cc1cc2c(cc1Cl)SSc1cc(Cl)c(C)cc1S(=O)(=O)Nc1nc(N)nn1C(O)n1nc(N)nc1NS2(=O)=O`, the GI50 with HL-60, in the assay with 786-0, in the assay with PC-3, with T47D, in the assay with MCF7 and with DU-145 was > 10 µM (inactive) each time. Moreover, the GI50 in the assay on NCI/ADR-RES, in the assay with HT-29, in the assay with TK-10, in the assay with Malme-3M, in the assay on HCT-116 and with EKVX was > 10 µM (inactive) in each case. The GI50 with UO-31, in the assay on SN12C, in the assay with SNB-19, in the assay with SK-MEL-2, in the assay on IGROV-1 and in the assay on OVCAR-8 was > 10 µM (inactive) each time.

In the case of `CC12c3c4ccc(C=O)c3Oc3ccc(C=O)c(c31)Oc1ccc(C=O)c(c12)O4`, the GI50 with HL-60, in the assay with 786-0, in the assay with PC-3, in the assay with T47D, with MCF7 and with DU-145 was > 25 µM (inactive) throughout. Moreover, the GI50 in the assay with NCI/ADR-RES, in the assay with HT-29, in the assay on Malme-3M, in the assay with HCT-116, in the assay with EKVX and with UO-31 was > 25 µM (inactive) throughout. In addition, the GI50 in the assay with SN12C, in the assay on SNB-19, in the assay on SK-MEL-2, in the assay with IGROV-1 and in the assay on OVCAR-8 was > 25 µM (inactive) throughout.

For the molecule `CCn1c(SCC(=O)NNC(=S)Nc2ccc([N+](=O)[O-])cc2)nc2ccccc2c1=O`, the GI50 was 40.7 µM (inactive) with HL-60; 60.5 µM (inactive) in the assay with 786-0; 41.4 µM (inactive) in the assay with PC-3; 64.3 µM (inactive) in the assay with T47D; 83.4 µM (inactive) with MCF7; > 100 µM (inactive) in the assay with DU-145. The GI50 with NCI/ADR-RES was > 100 µM (inactive); in the assay with TK-10 it was 68.9 µM (inactive); in the assay with Malme-3M, 73.5 µM (inactive); with HCT-116 it was 35.3 µM (inactive); in the assay on EKVX it was > 100 µM (inactive); with UO-31, 39.5 µM (inactive). Further, the GI50 in the assay with SN12C is 50.9 µM (inactive); in the assay on SNB-19 it was 81.7 µM (inactive); with SK-MEL-2, > 100 µM (inactive); in the assay with IGROV-1, > 100 µM (inactive); in the assay on OVCAR-8, > 100 µM (inactive).

For `CCOC(=O)n1cncc1CC(NC(=O)Cc1c(C(=O)C=C(C)C)[nH]c2ccccc12)C(=O)OC` (configuration not stated), the GI50 in the assay on HL-60 was 18 µM (inactive); with 786-0, 21.5 µM (inactive); in the assay on PC-3, 17 µM (inactive); in the assay with T47D it was 2.8 µM (inactive); in the assay with MCF7 it was 24.7 µM (inactive); with DU-145 it was 18.5 µM (inactive). In addition, the GI50 is 33.4 µM (inactive) in the assay on NCI/ADR-RES; 22.3 µM (inactive) in the assay on HT-29; 18.2 µM (inactive) with TK-10; 17.2 µM (inactive) with Malme-3M; 27.9 µM (inactive) in the assay with HCT-116; 15.5 µM (inactive) with EKVX. Moreover, the GI50 with UO-31 was 15.7 µM (inactive); with SN12C, 16.3 µM (inactive); in the assay with SNB-19 it was 14.5 µM (inactive); in the assay with SK-MEL-2, 17 µM (inactive); with IGROV-1, 14.9 µM (inactive); with OVCAR-8 it was 18.5 µM (inactive).

`Cc1ccc(NC(=O)/C(Cc2cc(=O)oc3cc(O)ccc23)=N\NC(=O)C[N+](C)(C)C)cc1C`: the GI50 in the assay with HL-60, in the assay on 786-0, in the assay with PC-3, in the assay on T47D, with MCF7 and in the assay on DU-145 was > 100 µM (inactive) each time. Also, the GI50 with NCI/ADR-RES, in the assay on HT-29, in the assay on TK-10, with Malme-3M, with HCT-116 and with EKVX was > 100 µM (inactive) in each case. In addition, the GI50 in the assay with UO-31, in the assay with SN12C, with SNB-19, with SK-MEL-2, with IGROV-1 and with OVCAR-8 was > 100 µM (inactive) in each case.

Regarding `CCOC(=O)CC1C(O)C(=O)N(C)C1c1ccccc1` (configuration not stated), the GI50 in the assay on HL-60, in the assay with 786-0, in the assay on PC-3, in the assay on T47D, in the assay with MCF7 and in the assay with DU-145 was > 100 µM (inactive) in each case. The GI50 in the assay with NCI/ADR-RES, in the assay on HT-29, with TK-10, in the assay with Malme-3M, with HCT-116 and in the assay with EKVX was > 100 µM (inactive) each time. Besides, the GI50 in the assay with UO-31, in the assay on SN12C, in the assay with SNB-19, in the assay with SK-MEL-2, in the assay on IGROV-1 and with OVCAR-8 was > 100 µM (inactive) each time.

Take `CCCCNC(=S)c1ccc(OC(=O)Nc2ccc(Cl)cc2)cc1`: the GI50 was 8.57 µM (inactive) in the assay with HL-60; > 100 µM (inactive) in the assay with 786-0; > 100 µM (inactive) in the assay with PC-3; 58.6 µM (inactive) in the assay on T47D; 41.7 µM (inactive) in the assay on MCF7; > 100 µM (inactive) with DU-145. Besides, the GI50 was 12.4 µM (inactive) in the assay with NCI/ADR-RES; 8.18 µM (inactive) in the assay with HT-29; 79.8 µM (inactive) in the assay with Malme-3M; 38.4 µM (inactive) in the assay on HCT-116; 42.2 µM (inactive) with EKVX; 19.7 µM (inactive) in the assay with UO-31. In addition, the GI50 is > 100 µM (inactive) in the assay on SNB-19, 19.3 µM (inactive) in the assay on SK-MEL-2, 3.02 µM (inactive) in the assay with IGROV-1 and 12.6 µM (inactive) with OVCAR-8.

Turning to `CC(=O)OCC1OC(N2C(S)=C(C#N)C(c3ccco3)C(C(C)=O)=C2c2ccccc2)C(OC(C)=O)C(OC(C)=O)C1OC(C)=O` (configuration not stated), the GI50 with HL-60 was > 100 µM (inactive); in the assay on 786-0 it was 29.3 µM (inactive); in the assay on PC-3, 24.9 µM (inactive); in the assay with T47D, > 100 µM (inactive); in the assay on MCF7, > 100 µM (inactive); with DU-145, 79.8 µM (inactive). The GI50 with NCI/ADR-RES is > 100 µM (inactive); with HT-29 it was > 100 µM (inactive); in the assay with TK-10, > 100 µM (inactive); with Malme-3M, 52.5 µM (inactive); in the assay with HCT-116 it was 51.9 µM (inactive); with UO-31 it was 29.3 µM (inactive). Further, the GI50 in the assay with SN12C is 29.4 µM (inactive); in the assay on SNB-19 it was 39.5 µM (inactive); in the assay on SK-MEL-2, > 100 µM (inactive); in the assay with IGROV-1, 54.5 µM (inactive); in the assay with OVCAR-8 it was 61 µM (inactive).

Regarding `Cc1ccc(C(=O)Nc2ccc(CP(=O)(O)O)cc2CP(=O)(O)O)cc1NC(=O)c1cccc(NC(=O)Nc2cccc(C(=O)Nc3cc(C(=O)Nc4ccc(CP(=O)(O)O)cc4CP(=O)(O)O)ccc3C)c2)c1`, the GI50 with HL-60, with 786-0, in the assay with PC-3, with T47D, with MCF7 and in the assay on DU-145 was > 100 µM (inactive) each time. Also, the GI50 in the assay with NCI/ADR-RES, in the assay on HT-29, in the assay with TK-10, with Malme-3M, with HCT-116 and in the assay with EKVX was > 100 µM (inactive) each time. Also, the GI50 with UO-31, with SN12C, with SK-MEL-2, in the assay on IGROV-1 and with OVCAR-8 was > 100 µM (inactive) each time.

Turning to `O=C1CCCCC/C1=C\c1cccc([N+](=O)[O-])c1`, the GI50 with HL-60 was 17.7 µM (inactive); in the assay on 786-0 it was 33.2 µM (inactive); in the assay on PC-3 it was 34.3 µM (inactive); in the assay on T47D, 36 µM (inactive); in the assay with MCF7 it was 48.3 µM (inactive); in the assay on DU-145, 48.2 µM (inactive). Also, the GI50 in the assay with NCI/ADR-RES is 34.1 µM (inactive); with HT-29 it was 37.2 µM (inactive); in the assay with TK-10 it was 33.7 µM (inactive); with Malme-3M it was 28.5 µM (inactive); in the assay with HCT-116 it was 22.2 µM (inactive); with EKVX, 33.7 µM (inactive). For the same molecule, the GI50 is 27.7 µM (inactive) in the assay on UO-31; 45.7 µM (inactive) with SN12C; 38.6 µM (inactive) in the assay on SNB-19; 29.6 µM (inactive) with SK-MEL-2; 19.4 µM (inactive) in the assay with IGROV-1; 33 µM (inactive) in the assay on OVCAR-8.
